Experiments:
[1] = target: Tyrosine-protein kinase Fyn (Homo sapiens) (UniProt P06241); settings: at 10 µM
[2] = target: Ribosomal protein S6 kinase alpha-3 (Homo sapiens, UniProt P51812); assay: Selectivity interaction (KinomeScan (DiscoverX)) EUB0000655a RPS6KA3; settings: at 10 µM
[3] = target: MAP/microtubule affinity-regulating kinase 3 (Homo sapiens) (UniProt P27448); assay: Selectivity interaction (Kinase panel (DSF assay)) EUB0001559a MARK3
[4] = target: T1, Protein kinase C zeta type (Homo sapiens) (UniProt Q05513); assay: Selectivity interaction (Millipore kinase profiler) EUB0000124b PRKCZ; settings: at 10 µM
T1 sequence (whole entry): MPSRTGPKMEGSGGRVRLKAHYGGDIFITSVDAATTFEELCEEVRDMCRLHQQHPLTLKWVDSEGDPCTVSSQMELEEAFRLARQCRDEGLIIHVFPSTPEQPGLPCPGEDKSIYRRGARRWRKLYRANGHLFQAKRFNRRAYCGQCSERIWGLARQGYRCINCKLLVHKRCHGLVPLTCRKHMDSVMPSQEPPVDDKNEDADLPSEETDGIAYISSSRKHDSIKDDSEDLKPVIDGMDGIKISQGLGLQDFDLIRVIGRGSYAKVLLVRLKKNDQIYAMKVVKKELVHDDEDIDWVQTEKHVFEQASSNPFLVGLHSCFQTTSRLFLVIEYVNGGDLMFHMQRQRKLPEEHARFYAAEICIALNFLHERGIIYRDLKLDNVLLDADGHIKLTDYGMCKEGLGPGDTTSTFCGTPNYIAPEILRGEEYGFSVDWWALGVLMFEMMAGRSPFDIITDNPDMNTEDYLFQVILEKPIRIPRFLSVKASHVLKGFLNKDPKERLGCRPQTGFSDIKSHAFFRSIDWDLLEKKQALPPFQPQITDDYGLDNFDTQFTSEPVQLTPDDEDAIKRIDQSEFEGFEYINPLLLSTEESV

[5] = target: Casein kinase I isoform delta (Homo sapiens, UniProt P48730); settings: at 10 µM
[6] = target: T2, MAP/microtubule affinity-regulating kinase 4 (Homo sapiens) (UniProt Q96L34); assay: Selectivity interaction (Kinase panel (Z-LYTE Assay)) EUB0001632a MARK4; settings: at 10 µM
T2 sequence (whole entry): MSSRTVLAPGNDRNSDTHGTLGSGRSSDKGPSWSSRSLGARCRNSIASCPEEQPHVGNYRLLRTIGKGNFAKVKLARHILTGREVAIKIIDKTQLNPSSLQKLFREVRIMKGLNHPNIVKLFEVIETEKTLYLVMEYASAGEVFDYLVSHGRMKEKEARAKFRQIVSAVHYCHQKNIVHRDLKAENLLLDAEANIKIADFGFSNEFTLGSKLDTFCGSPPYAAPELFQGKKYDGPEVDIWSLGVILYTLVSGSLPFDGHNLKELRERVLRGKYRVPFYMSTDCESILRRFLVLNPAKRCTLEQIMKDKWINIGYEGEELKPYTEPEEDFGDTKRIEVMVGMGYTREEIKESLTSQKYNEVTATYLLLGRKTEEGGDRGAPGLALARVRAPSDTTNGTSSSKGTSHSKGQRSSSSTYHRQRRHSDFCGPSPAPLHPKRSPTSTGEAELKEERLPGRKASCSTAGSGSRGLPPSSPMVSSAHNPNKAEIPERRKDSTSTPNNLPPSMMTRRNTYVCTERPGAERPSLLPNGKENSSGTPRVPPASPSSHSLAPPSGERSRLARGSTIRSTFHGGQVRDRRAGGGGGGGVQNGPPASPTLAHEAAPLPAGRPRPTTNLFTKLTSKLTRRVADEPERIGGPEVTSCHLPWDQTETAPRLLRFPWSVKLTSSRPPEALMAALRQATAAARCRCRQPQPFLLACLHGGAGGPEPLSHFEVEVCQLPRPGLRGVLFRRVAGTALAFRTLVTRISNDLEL

[7] = target: T1, Protein kinase C zeta type (Homo sapiens); assay: Selectivity interaction (Kinase panel (Z-LYTE Assay)) EUB0001632a PRKCZ; settings: at 10 µM
[8] = target: Serine/threonine-protein kinase 24 (Homo sapiens) (UniProt Q9Y6E0); assay: Selectivity interaction (ActivX KiNativ screen (kinase selectivity in THP-1 cell lysates)) EUB0000639a STK24; format: subcellular; settings: lysate, at 5 µM
[9] = target: Platelet-derived growth factor receptor beta (Homo sapiens, UniProt P09619); assay: Selectivity interaction (KinomeScan (DiscoverX)) EUB0000607a PDGFRB; settings: at 10 µM
[10] = target: Cyclin-dependent kinase 7 (Homo sapiens, UniProt P50613); assay: Selectivity interaction (KinomeScan (DiscoverX)) EUB0000045b CDK7
Sequence of Cyclin-dependent kinase 7 (P50613 whole entry): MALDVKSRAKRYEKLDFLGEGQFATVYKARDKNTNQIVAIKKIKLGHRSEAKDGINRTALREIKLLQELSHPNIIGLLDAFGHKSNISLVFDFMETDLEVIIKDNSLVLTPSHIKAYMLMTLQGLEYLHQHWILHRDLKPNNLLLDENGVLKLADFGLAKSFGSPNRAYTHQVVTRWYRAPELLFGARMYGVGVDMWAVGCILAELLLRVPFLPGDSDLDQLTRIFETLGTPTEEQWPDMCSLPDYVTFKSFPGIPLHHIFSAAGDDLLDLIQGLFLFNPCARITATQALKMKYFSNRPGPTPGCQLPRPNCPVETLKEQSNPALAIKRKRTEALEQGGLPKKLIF

Sequence of Serine/threonine-protein kinase 24 (Homo sapiens) (Q9Y6E0 whole entry, looked up): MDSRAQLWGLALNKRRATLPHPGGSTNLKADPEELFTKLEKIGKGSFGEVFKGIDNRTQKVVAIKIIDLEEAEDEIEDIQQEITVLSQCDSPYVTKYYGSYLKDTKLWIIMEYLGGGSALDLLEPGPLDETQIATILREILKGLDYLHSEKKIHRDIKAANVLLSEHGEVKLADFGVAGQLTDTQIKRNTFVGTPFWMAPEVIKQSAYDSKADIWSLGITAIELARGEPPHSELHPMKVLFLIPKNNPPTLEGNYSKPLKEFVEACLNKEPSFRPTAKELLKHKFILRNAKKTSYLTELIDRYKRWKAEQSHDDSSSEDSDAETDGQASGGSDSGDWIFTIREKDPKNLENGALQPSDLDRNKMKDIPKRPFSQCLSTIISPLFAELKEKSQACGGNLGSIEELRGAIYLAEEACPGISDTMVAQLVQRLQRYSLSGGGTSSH
Sequence of Casein kinase I isoform delta (P48730 whole entry, looked up, canonical isoform): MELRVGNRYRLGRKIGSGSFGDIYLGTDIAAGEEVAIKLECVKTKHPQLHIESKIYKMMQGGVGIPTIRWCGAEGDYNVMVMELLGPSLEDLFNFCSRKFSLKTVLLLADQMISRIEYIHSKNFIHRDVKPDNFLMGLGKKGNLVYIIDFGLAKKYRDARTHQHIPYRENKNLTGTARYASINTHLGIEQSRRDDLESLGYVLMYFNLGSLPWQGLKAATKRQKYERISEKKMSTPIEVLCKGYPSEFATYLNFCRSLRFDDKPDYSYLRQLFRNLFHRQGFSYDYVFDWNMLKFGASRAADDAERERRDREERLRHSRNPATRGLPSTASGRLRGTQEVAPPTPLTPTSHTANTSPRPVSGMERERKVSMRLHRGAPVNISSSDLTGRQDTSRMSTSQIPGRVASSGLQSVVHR
Sequence of Tyrosine-protein kinase Fyn (Homo sapiens) (P06241 2-537 limits assumed): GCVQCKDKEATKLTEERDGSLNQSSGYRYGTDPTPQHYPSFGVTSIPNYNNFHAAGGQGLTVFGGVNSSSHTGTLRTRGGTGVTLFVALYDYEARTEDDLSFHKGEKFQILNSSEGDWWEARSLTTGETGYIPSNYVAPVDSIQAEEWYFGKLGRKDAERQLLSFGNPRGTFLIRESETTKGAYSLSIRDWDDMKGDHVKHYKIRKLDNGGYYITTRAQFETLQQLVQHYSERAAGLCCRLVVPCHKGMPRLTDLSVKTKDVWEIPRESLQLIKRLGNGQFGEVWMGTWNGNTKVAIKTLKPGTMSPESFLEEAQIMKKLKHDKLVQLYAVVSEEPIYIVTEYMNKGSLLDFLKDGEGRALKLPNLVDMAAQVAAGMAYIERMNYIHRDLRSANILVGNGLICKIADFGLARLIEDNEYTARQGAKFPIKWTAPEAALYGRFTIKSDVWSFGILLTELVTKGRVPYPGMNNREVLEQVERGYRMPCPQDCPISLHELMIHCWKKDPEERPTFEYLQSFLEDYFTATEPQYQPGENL
Sequence of MAP/microtubule affinity-regulating kinase 3 (Homo sapiens) (P27448 whole entry, looked up): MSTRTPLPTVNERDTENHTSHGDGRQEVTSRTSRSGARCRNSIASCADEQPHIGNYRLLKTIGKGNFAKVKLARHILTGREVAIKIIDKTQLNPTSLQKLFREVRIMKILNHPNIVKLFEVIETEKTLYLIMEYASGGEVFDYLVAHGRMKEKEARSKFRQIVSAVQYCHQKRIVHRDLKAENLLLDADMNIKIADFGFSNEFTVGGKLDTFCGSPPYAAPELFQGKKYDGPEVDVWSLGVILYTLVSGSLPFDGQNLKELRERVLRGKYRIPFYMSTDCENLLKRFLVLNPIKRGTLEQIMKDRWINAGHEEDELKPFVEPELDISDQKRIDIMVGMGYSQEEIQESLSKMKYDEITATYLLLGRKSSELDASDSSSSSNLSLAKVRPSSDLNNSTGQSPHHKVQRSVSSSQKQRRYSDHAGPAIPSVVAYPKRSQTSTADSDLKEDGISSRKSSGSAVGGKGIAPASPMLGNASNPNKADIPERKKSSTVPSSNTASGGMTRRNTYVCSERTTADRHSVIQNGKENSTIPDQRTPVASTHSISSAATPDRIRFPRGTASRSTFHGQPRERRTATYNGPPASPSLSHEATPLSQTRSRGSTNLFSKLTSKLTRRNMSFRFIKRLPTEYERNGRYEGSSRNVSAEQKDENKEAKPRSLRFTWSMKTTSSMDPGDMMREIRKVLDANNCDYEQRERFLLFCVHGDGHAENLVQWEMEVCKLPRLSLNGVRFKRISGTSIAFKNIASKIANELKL
Sequence of Ribosomal protein S6 kinase alpha-3 (P51812 whole entry): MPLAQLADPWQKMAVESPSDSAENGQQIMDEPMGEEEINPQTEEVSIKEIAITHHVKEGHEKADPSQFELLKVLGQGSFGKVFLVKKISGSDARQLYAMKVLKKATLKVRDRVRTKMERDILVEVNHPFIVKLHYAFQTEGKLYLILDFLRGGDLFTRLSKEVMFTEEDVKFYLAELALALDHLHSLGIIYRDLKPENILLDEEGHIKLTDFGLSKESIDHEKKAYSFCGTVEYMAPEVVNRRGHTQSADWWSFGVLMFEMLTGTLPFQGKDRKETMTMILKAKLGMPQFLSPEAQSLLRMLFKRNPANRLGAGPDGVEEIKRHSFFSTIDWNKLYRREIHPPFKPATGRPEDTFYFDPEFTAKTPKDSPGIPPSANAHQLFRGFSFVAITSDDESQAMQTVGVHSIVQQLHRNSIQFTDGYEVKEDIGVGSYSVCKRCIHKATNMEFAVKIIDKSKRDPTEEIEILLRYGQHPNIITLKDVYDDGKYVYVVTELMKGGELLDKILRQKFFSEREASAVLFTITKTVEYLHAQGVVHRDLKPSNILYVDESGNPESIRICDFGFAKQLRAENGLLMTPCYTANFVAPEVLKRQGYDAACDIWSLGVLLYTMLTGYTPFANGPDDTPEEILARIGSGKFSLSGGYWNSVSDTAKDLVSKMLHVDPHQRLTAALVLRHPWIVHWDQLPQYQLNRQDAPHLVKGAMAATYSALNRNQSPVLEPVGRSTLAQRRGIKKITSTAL
Sequence of Platelet-derived growth factor receptor beta (P09619 whole entry): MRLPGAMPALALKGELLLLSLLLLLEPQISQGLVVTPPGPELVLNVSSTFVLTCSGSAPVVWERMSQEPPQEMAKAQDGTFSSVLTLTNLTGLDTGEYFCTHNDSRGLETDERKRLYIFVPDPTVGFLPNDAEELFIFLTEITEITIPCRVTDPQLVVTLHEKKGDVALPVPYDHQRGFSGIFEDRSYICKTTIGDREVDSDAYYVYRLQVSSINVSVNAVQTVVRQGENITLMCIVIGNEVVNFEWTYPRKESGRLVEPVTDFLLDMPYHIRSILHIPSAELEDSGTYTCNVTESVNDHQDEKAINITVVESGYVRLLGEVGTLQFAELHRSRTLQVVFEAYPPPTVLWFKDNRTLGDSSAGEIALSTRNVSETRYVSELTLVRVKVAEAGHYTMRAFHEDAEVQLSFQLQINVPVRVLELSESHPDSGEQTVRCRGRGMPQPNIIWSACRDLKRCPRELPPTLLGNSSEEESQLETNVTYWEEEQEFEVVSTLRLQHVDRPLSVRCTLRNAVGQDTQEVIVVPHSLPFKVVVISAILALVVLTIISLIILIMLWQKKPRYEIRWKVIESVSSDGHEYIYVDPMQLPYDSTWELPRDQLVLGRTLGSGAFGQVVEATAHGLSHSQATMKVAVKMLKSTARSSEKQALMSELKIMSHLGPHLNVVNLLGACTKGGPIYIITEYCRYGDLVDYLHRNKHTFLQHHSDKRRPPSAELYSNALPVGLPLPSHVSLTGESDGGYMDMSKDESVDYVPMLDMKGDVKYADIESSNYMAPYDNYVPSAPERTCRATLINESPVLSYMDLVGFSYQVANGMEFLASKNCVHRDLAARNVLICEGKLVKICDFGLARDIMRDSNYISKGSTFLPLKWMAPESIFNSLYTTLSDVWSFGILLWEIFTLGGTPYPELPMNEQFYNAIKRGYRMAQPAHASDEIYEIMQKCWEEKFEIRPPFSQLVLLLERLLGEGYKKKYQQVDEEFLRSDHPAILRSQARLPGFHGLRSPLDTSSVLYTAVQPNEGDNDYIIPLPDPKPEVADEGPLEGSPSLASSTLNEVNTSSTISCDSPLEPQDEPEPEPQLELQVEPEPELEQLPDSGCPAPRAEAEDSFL

CCN(CC)CCCCNc1ncc2cc(-c3cc(OC)cc(OC)c3)c(NC(=O)NC(C)(C)C)nc2n1
% of control [1]: 100%

CN(C)CCOc1ccc(-c2nc(-c3ccncc3)c(-c3ccc4c(c3)CC/C4=N\O)[nH]2)cc1
% of control [2]: 67%

CN(C(=O)c1cnn2cccnc12)c1cc2c(cc1N1CCOCC1)C(=O)N(C[C@@H](F)C(C)(C)O)C2
dTM [3]: 0.7 K

CC(=O)Nc1cccc(-n2c(=O)n(C3CC3)c(=O)c3c(Nc4ccc(I)cc4F)n(C)c(=O)c(C)c32)c1
% of control [4]: 102%

Cc1cc([C@@H](C)Nc2ccccc2C(=O)O)c2nc(N3CCOCC3)cc(=O)n2c1 [AZD-6482]
% of control [5]: 86%

Cn1cc(-n2cnc3c(NCc4nc5cc(Cl)c(Cl)cc5[nH]4)nc(N4CCOCC4)nc32)cn1
% of control [6]: 18.7% | % of control [7]: 6.71%

CC[C@@H]1[C@H](F)C(=O)N[C@@H]1COc1nccc2cc(C(N)=O)c(OC)cc12 [ZIMLOVISERTIB]
% of inhibition [8]: 3.2%

CNC(=O)Nc1ccc(-c2nc(N3CC4CCC(C3)O4)c3cnn(C4CCC5(CC4)OCCO5)c3n2)cc1
% of control [9]: 89%

C=CC(=O)Nc1cc(-n2c(=O)ccc3cnc4ccc(-c5ccc(NS(C)(=O)=O)cc5)cc4c32)ccc1C
% of control ([10]; at 1 µM): 79% | % of control ([10]; at 10 µM): 26%

Source: ChEMBL document CHEMBL5465560, “Selectivity Literature for EUbOPEN Chemogenomic Library” (2024)
